Assays:
Assay in all cases: growth AUC relative to DMSO control (fraction); higher = more growth (less inhibition)
Details in all cases: 24 h
Escherichia coli IAI1 = test system: Escherichia coli IAI1
Protocol: (§1)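 Validation screen: 11 independently purchased pesticides tested on 8 gut bacterial strains at 2.5–320 µM in mGAM, anaerobic, 37 °C, 24 h. Growth AUC normalised to DMSO controls, mean of 3 independent experiments.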

Clostridium difficile = test system: Clostridium difficile
Protocol: as §1

Streptococcus salivarius = test system: Streptococcus salivarius
Protocol: as §1

Eubacterium rectale = test system: Eubacterium rectale
Protocol: as §1

[1] = test system: Parabacteroides distasonis
Protocol: as §1

Roseburia intestinalis = test system: Roseburia intestinalis
Protocol: as §1

Lactobacillus gasseri = test system: Lactobacillus gasseri
Protocol: as §1

Bacteroides uniformis = test system: Bacteroides uniformis
Protocol: as §1

CCCN(CCOc1c(Cl)cc(Cl)cc1Cl)C(=O)n1ccnc1 [PROCHLORAZ]
growth AUC
Details	Bacteroides uniformis	Clostridium difficile	Escherichia coli IAI1	Eubacterium rectale	Lactobacillus gasseri	Roseburia intestinalis	Streptococcus salivarius	[1]
2.5 µM	1	0.989	1	0.748	1.01	0.993	1.01	0.957
5 µM	0.994	0.977	0.987	0.524	1	1.02	0.995	0.858
10 µM	0.938	0.956	0.966	0.397	0.944	0.949	0.973	0.68
20 µM	0.92	1.01	0.956	0.125	0.931	0.718	0.945	0.608
40 µM	0.886	0.875	0.988	0.0225	0.957	0.594	0.984	0.363
80 µM	0.812	0.913	0.989	0.0308	0.903	0.0292	0.962	0.0195
160 µM	0.767	0.391	0.983	0.0176	0.836	0.0197	0.935	0.0246

CC[C@H](C)[C@H]1O[C@]2(C=C[C@@H]1C)C[C@@H]1C[C@@H](C/C=C(\C)[C@@H](O[C@H]3C[C@H](OC)[C@@H](O[C@H]4C[C@H](OC)[C@@H](NC)[C@H](C)O4)[C@H](C)O3)[C@@H](C)/C=C/C=C3\CO[C@@H]4[C@H](O)C(C)=C[C@@H](C(=O)O1)[C@]34O)O2.O=C(O)c1ccccc1 [EMAMECTIN BENZOATE]
growth AUC
Details	Bacteroides uniformis	Clostridium difficile	Escherichia coli IAI1	Eubacterium rectale	Lactobacillus gasseri	Roseburia intestinalis	Streptococcus salivarius	[1]
2.5 µM	1.03	1.01	1.06	1.03	1.01	0.859	1.08	1.09
5 µM	1.04	0.987	1.02	1.04	1.01	0.396	1	0.898
10 µM	0.992	0.916	1	0.693	0.949	0.0369	1.02	0.487
20 µM	1.03	0.967	0.979	0.0185	0.822	0.0348	0.938	0.0163
40 µM	0.839	0.654	1.05	0.0159	0.848	0.0127	1.14	0.00619
80 µM	0.669	0.0139	1.04	0.0289	1.02	0.00913	1.16	0.0234
160 µM	0.732	0.0469	1.06	0.126	1.07	0.0441	1.27	0.0419

N#Cc1c(Cl)c(Cl)c(Cl)c(C#N)c1Cl [CHLOROTHALONIL]
growth AUC
Details	Bacteroides uniformis	Clostridium difficile	Escherichia coli IAI1	Eubacterium rectale	Lactobacillus gasseri	Roseburia intestinalis	Streptococcus salivarius	[1]
2.5 µM	1.04	1.03	1.02	1.07	1.02	0.978	1.08	1.13
5 µM	1.01	1.01	0.986	0.894	1.03	1.01	0.963	1.04
10 µM	0.981	0.963	1.01	0.836	1	0.91	1	0.921
20 µM	0.889	0.993	0.974	0.593	0.925	0.713	0.907	0.961

Source: the supplement of paper PMC12669032
